Reference: PubChem BioAssay (NCI)
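Each compound was tested at five concentrations against cells in 96-well plates for 48 hours. The concentration for 50% growth inhibition is given as GI50. The concentration for full growth arrest is given as TGI.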

What was measured:
Experiment in all cases: NCI-60 cell line screen, 48 h
M14 melanoma = test system: M14 melanoma
MDA-MB-231 breast = test system: MDA-MB-231 breast
OVCAR-8 ovarian = test system: OVCAR-8 ovarian
K-562 leukemia = test system: K-562 leukemia
UO-31 renal = test system: UO-31 renal
ACHN renal = test system: ACHN renal
MCF7 breast = test system: MCF7 breast
MALME-3M melanoma = test system: MALME-3M melanoma
KM12 colon = test system: KM12 colon
UACC-62 melanoma = test system: UACC-62 melanoma

Structure (SMILES) | GI50 (M14 melanoma) [µM] | TGI (M14 melanoma) [µM] | GI50 (MDA-MB-231 breast) [µM] | TGI (MDA-MB-231 breast) [µM] | GI50 (OVCAR-8 ovarian) [µM] | TGI (OVCAR-8 ovarian) [µM] | GI50 (K-562 leukemia) [µM] | TGI (K-562 leukemia) [µM] | GI50 (UO-31 renal) [µM] | TGI (UO-31 renal) [µM] | GI50 (ACHN renal) [µM] | TGI (ACHN renal) [µM] | GI50 (MCF7 breast) [µM] | TGI (MCF7 breast) [µM] | GI50 (MALME-3M melanoma) [µM] | TGI (MALME-3M melanoma) [µM] | GI50 (KM12 colon) [µM] | TGI (KM12 colon) [µM] | GI50 (UACC-62 melanoma) [µM] | TGI (UACC-62 melanoma) [µM]
CCn1nc(C#Cc2c(C)ccc3c(Nc4ccc(Cl)cc4)nccc23)c2c(N)ncnc21 | 2.89 | > 100 | 1.89 | 27.8 | 4.35 | > 100 | 2.18 | > 100 | 2.09 | > 100 | 5.31 | > 100 | 2.49 | > 100 | 2.1 | 7.09 | 3.79 | > 100 | 1.6 | 9.1
N#Cc1cccc(C2SCc3nc4ccccc4n32)c1 (configuration not stated) | – | – | – | – | – | > 100 | – | > 100 | – | > 100 | – | > 100 | – | – | – | > 100 | – | > 100 | – | > 100
Cc1cc(Br)ccc1N=NC1C(=O)ON=C1c1ccccc1 (configuration not stated) | – | > 100 | – | – | – | > 100 | – | > 100 | – | > 100 | – | > 100 | – | – | – | > 100 | – | > 100 | – | > 100
COc1cc(Br)c(C2OCCCO2)cc1OCc1ccccc1 | – | > 100 | – | – | – | > 100 | – | > 100 | – | > 100 | – | > 100 | – | – | – | – | – | > 100 | – | > 100
COc1cc(-c2nn(-c3cccc(NC(=O)NCCNC(=O)c4ccccc4)c3)cc2-c2ccncc2)ccc1Cl | 2.88 | > 100 | 2.99 | > 100 | 0.576 | 41.7 | – | – | 2.76 | > 100 | 3.14 | > 100 | 2.22 | > 100 | 1.97 | 6.11 | 2.56 | 40.2 | 3.08 | 31.2
CCn1c(O)c(C(=O)Nc2cccs2)c(=O)n(CC)c1=S | – | 43.8 | – | – | – | 60.2 | – | 53.6 | – | – | – | 63.2 | – | – | – | 38.6 | – | 32.6 | – | 29.5
Cc1ccccc1C1N=C2Oc3ccccc3C=C2C(=O)N1 (configuration not stated) | 0.826 | 7.66 | 1.81 | 33.3 | 10.9 | > 100 | 4.01 | > 100 | 7.5 | > 100 | 2.2 | > 100 | 0.793 | > 100 | – | – | 15 | > 100 | 1.48 | > 100
CCN(CC)CCCC(C)Nc1ccnc2cc(OC)ccc12 (configuration not stated) | 16.7 | 30.4 | 22.5 | 54.3 | 24.3 | 71.1 | 33.7 | > 100 | 16.4 | 34.6 | 39.4 | > 100 | > 100 | > 100 | 22.1 | 50.2 | 26.4 | > 100 | 19.5 | 37.7
O=C(c1ccccc1)N1CCc2c([nH]c3ccccc23)C1 | – | > 100 | – | – | – | > 100 | – | > 100 | – | 99.2 | – | > 100 | – | – | – | > 100 | – | > 100 | – | > 100
C/C(=N\NC(N)=S)c1ccc(Oc2ccccc2)cc1 | – | 25.8 | – | – | – | 52.3 | – | 21.5 | – | – | – | 42.7 | – | – | – | – | – | – | – | 28.8
BrC(/C=N/Nc1nnc(-c2ccccc2)c(-c2ccccc2)n1)C(Br)c1ccccc1 (configuration not stated) | – | 51.8 | – | – | – | > 100 | – | > 100 | – | 60.5 | – | > 100 | – | – | – | > 100 | – | > 100 | – | 53.5
O=c1ccn([C@@H]2C[C@H](CO)CS(=O)C2)c(=O)[nH]1 (some centres not stated) | – | > 100 | – | – | – | > 100 | – | > 100 | – | > 100 | – | > 100 | – | – | – | > 100 | – | > 100 | – | > 100
CCOc1ccc(/C=C/C(=O)c2sc(NNC(C)=O)nc2C)cc1 | – | – | – | – | – | > 100 | – | > 100 | – | > 100 | – | > 100 | – | – | – | > 100 | – | > 100 | – | > 100
CC1SC(c2ccc(OCc3ccccc3)cc2)N(NC(=O)C(O)(c2ccccc2)c2ccccc2)C1=O (configuration not stated) | – | – | 4.31 | 15.5 | 12.7 | 38.6 | 3.36 | > 100 | 3.74 | 21.3 | 2.74 | 9.38 | 4.37 | 22.4 | 2.15 | 10.5 | 2.29 | 6.32 | 3.69 | 16
CCC[CH2][Sn]1([CH2]CCC)[O]C(=O)c2cccnc2[S]1 | 3.22 | 10.1 | – | – | 4.04 | 14.5 | 1.65 | 5.48 | 8.59 | 20.9 | 3.51 | 11.7 | – | – | 1.49 | 4.31 | 6.92 | 19.6 | 1.87 | 5.53
COc1ccc(Cc2c3cc(OC)c(OC)cc3cc[n+]2C)cc1 | – | > 28.1 | – | – | – | > 48.6 | – | > 100 | – | > 51.4 | – | > 49.9 | – | – | – | > 60.3 | – | > 23 | – | > 50
C#CC[C@]12CC(=O)CC[C@H]1CC1(C2)OCCO1 | – | > 100 | – | – | – | > 100 | – | > 100 | – | > 100 | – | > 100 | – | – | – | > 100 | – | > 100 | – | > 100
Cc1nn(-c2ccccc2)c2c1[C@@H](C)[C@H]1CC3(CC4(C)C[C@@H]3C1(C)c1c(C)nn(-c3ccccc3)c1N4C)N2C (some centres not stated) | – | – | > 100 | > 100 | – | – | – | – | – | – | – | – | 3.46 | > 100 | > 100 | > 100 | – | – | – | –
COc1cc(CC2c3cc(OC)c(OC)cc3CCN2C)c(C(=O)O)cc1OC (configuration not stated) | – | > 100 | – | – | – | > 100 | – | > 100 | – | > 100 | – | > 100 | – | – | – | > 100 | – | > 100 | – | > 100
CC[C@H]1CNC(=O)CC1CC(=O)OC (some centres not stated) | – | > 100 | – | – | – | > 100 | – | – | – | > 100 | – | > 100 | – | – | – | > 100 | – | > 100 | – | > 100
